Results from patent US8361968B2 (Takeda Pharmaceutical Company Limited, priority 2002, dated 2013).
Values joined by “and” are separate entries in the source; they are usually repeats but may differ in a detail not shown here. Equal entries are not always repeated. Numbered stars: 1 amine (or outer) side, 2 acyl side, 3 side chain; on linkers, the order of the positions; unused ones are H or OH. Square brackets hold non-standard residues; d marks the D form. Peptide text beside a SMILES is read from it. * marks the point of attachment. NαAmidinoTrp = N=C(N)N[C@@H](Cc1c[nH]c2ccccc12)C(=O)*; X1 = O=C([C@H](Cc1ccc2ccccc2n1)N[*:1])[*:2]; X8 = CNC(=N)NCC[C@H](N[*:1])C(=O)[*:2]; 1Nal = N[C@@H](Cc1cccc2ccccc12)C(=O)O; Cyclohexanecarbonyl = O=C(C1CCCCC1)*; Arg(Me) = CNC(=N)NCCC[C@H](N)C(=O)O; Bta = N[C@@H](Cc1csc2ccccc12)C(=O)O; Hydrocinnamoyl = O=C(CCc1ccccc1)*; 2Pal = N[C@@H](Cc1ccccn1)C(=O)O; Cha = N[C@@H](CC1CCCCC1)C(=O)O; X2 = O=C(Cc1c[nH]c2ccccc12)*; X6 = O=C(c1c[nH]c2ccccc12)*; azaGly = NNC(=O)O

Assays:
[1] = target: T1, hOT7T175 (Homo sapiens, UniProt Q969F8, L364H); assay: hOT7T175 receptor binding activity: binding inhibition of Cy-5-labeled metastin (40-54) on hOT7T175-expressed CHO cells; parameters: expressed in transfected cells; host or cells: CHO cells
[2] = target: T1, hOT7T175; assay: Intracellular Ca ion level-increasing activity using FLIPR in hOT7T175/CHO; assay type: cell-based; parameters: expressed in transfected cells; host or cells: CHO/dhfr- cells, obtained from ATCC; conditions: relative, Metastin (1-54) = 1

T1 sequence (Q969F8 whole entry L364H): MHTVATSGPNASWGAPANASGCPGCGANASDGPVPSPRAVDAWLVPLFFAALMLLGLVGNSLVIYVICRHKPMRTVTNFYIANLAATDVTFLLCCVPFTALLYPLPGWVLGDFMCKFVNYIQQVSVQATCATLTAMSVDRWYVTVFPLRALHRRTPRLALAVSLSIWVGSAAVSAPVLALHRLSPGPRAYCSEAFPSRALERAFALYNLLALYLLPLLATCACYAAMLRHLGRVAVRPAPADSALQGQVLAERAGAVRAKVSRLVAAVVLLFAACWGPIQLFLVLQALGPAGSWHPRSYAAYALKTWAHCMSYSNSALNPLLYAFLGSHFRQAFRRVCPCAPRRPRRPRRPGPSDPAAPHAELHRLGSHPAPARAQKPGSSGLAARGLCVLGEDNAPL

| SMILES | IC50 [1] [nM] | Specific Activity (intracellular Ca ion level-increasing activity) [2] |
| --- | --- | --- |
| CNC(=N)NCCC[C@H](NC(=O)[C@H](CC(C)C)NC(=O)NNC(=O)[C@H](Cc1ccccc1)NC(=O)[C@H](CO)NC(=O)[C@H](CC(N)=O)NC(=O)[C@H](Cc1c[nH]c2ccccc12)NC(=N)N)C(=O)N[C@@H](Cc1ccccc1)C(N)=O [Compound No. 273, Amidino-Trp-Asn-Ser-Phe-AzaGly-Leu-Arg(Me)-Phe-NH2] (NαAmidinoTrp-NSF[azaGly]L[Arg(Me)]F-NH2) | 300 | 5 |
| CCNC(=N)NCCC[C@H](NC(=O)[C@H](CC(C)C)NC(=O)CNC(=O)[C@H](Cc1ccccc1)NC(=O)[C@H](CO)NC(=O)[C@H](CC(N)=O)NC(=O)[C@H](Cc1c[nH]c2ccccc12)NC(=O)[C@H](CC(N)=O)NC(=O)[C@@H](N)Cc1ccc(O)cc1)C(=O)N[C@@H](Cc1ccccc1)C(N)=O [Compound No. 220] | 330 | 5 |
| CNC(=N)NCCC[C@H](NC(=O)[C@H](CC(C)C)NC(=O)CNC(=O)[C@H](Cc1ccccc1)NC(=O)[C@H](CO)NC(=O)[C@H](CC(N)=O)NC(=O)[C@H](CC1CCCCC1)NC(=O)[C@H](CC(N)=O)NC(=O)[C@H](N)Cc1ccc(O)cc1)C(=O)N[C@@H](Cc1ccccc1)C(N)=O [Compound No. 171, D-Tyr-Asn-Cha-Asn-Ser-Phe-Gly-Leu-Arg(Me)-Phe-NH2] (H-[dY]N[Cha]NSFGL[Arg(Me)]F-NH2) | 110 | 10 |
| CNC(=N)NCCC[C@H](NC(=O)[C@H](CC(C)C)NC(=O)CNC(=O)[C@H](Cc1ccccc1)NC(=O)[C@H](CO)NC(=O)[C@H](CC(N)=O)NC(=O)[C@@H](Cc1c[nH]c2ccccc12)NC(=O)[C@H](CC(N)=O)NC(=O)[C@H](N)Cc1ccc(O)cc1)C(=O)N[C@@H](Cc1ccccc1)C(N)=O [Compound No. 142, D-Tyr-Asn-D-Trp-Asn-Ser-Phe-Gly-Leu-Arg(Me)-Phe-NH2] | 26 | 2 |
| CC(C)C[C@H](NC(=O)CNC(=O)[C@H](Cc1ccccc1)NC(=O)[C@H](CO)NC(=O)[C@H](CC(N)=O)NC(=O)[C@H](Cc1c[nH]c2ccccc12)NC(=O)[C@H](CC(N)=O)NC(=O)[C@@H](N)Cc1ccc(O)cc1)C(=O)N[C@@H](CCCNC(=N)N)C(=O)N[C@@H](Cc1csc2ccccc12)C(N)=O [Compound No. 189] (H-YNWNSFGLR[Bta]-NH2; N-terminus assumed) | 230 | 10 |
| CC(C)C[C@H](NC(=O)CNC(=O)[C@H](Cc1ccccc1)NC(=O)[C@H](CO)NC(=O)[C@H](CC(N)=O)NC(=O)[C@H](Cc1c[nH]c2ccccc12)NC(=O)[C@H](CC(N)=O)NC(=O)[C@@H](N)Cc1ccc(O)cc1)C(=O)N[C@@H](CCCNC(=N)N)C(=O)N[C@@H](Cc1cccc2ccccc12)C(N)=O [Compound No. 133] (H-YNWNSFGLR[1Nal]-NH2) | 330 | 3 |
| CC(C)C[C@H](NC(=O)CNC(=O)[C@H](Cc1ccccc1)NC(=O)[C@H](CO)NC(=O)[C@H](CC(N)=O)NC(=O)[C@H](Cc1c[nH]c2ccccc12)NC(=O)[C@H](CC(N)=O)NC(=O)[C@@H](N)Cc1ccc(O)cc1)C(=O)N[C@@H](CCCNC(=N)N)C(=O)N[C@@H](Cc1c(F)c(F)c(F)c(F)c1F)C(N)=O [Compound No. 111] | 140 | 3 |
| CNC(=N)NCCC[C@H](NC(=O)[C@H](CC(C)C)NC(=O)CNC(=O)[C@H](Cc1ccccn1)NC(=O)[C@H](CO)NC(=O)[C@H](CC(N)=O)NC(=O)[C@H](Cc1c[nH]c2ccccc12)NC(=O)[C@H](CC(N)=O)NC(=O)[C@H](N)Cc1ccc(O)cc1)C(=O)N[C@@H](Cc1ccccc1)C(N)=O [Compound No. 281, D-Tyr-Asn-Trp-Asn-Ser-Pya(2)-Gly-Leu-Arg(Me)-Phe-NH2] (H-[dY]NWNS[2Pal]GL[Arg(Me)]F-NH2) | 230 | ½ |
| CNC(=N)NCC[C@H](NC(=O)[C@H](CC(C)C)NC(=O)CNC(=O)[C@H](Cc1ccccc1)NC(=O)[C@H](CO)NC(=O)[C@H](CC(N)=O)NC(=O)[C@H](Cc1c[nH]c2ccccc12)NC(=O)[C@H](CC(N)=O)NC(=O)[C@@H](N)Cc1ccc(O)cc1)C(=O)N[C@@H](Cc1ccccc1)C(N)=O [Compound No. 311] (H-YNWNSFGL[X8]F-NH2) | 470 | 1 |
| CC(C)C[C@H](NC(=O)CNC(=O)[C@H](Cc1ccccc1)NC(=O)[C@H](CO)NC(=O)[C@H](CC(N)=O)NC(=O)[C@H](Cc1c[nH]c2ccccc12)NC(=O)[C@H](CC(N)=O)NC(=O)[C@@H](N)Cc1ccc(O)cc1)C(=O)N[C@@H](CCCNC(=N)N)C(=O)N[C@@H](Cc1ccc(Cl)c(Cl)c1)C(N)=O [Compound No. 199] | 470 | 3 |
| CC(C)C[C@H](NC(=O)[C@H](C)NC(=O)[C@H](Cc1ccccc1)NC(=O)[C@H](CO)NC(=O)[C@H](CC(N)=O)NC(=O)[C@H](Cc1c[nH]c2ccccc12)NC(=O)[C@H](CC(N)=O)NC(=O)[C@@H](N)Cc1ccc(O)cc1)C(=O)N[C@@H](CCCNC(=N)N)C(=O)N[C@@H](Cc1ccccc1)C(N)=O [Compound No. 50] (H-YNWNSFALRF-NH2) | 190 | 30 |
| CNC(=N)NCCC[C@H](NC(=O)[C@H](CC(C)C)NC(=O)CNC(=O)[C@H](Cc1ccccc1)NC(=O)[C@H](CO)NC(=O)[C@H](CC(N)=O)NC(=O)[C@@H](NC(=O)[C@H](CC(N)=O)NC(=O)[C@H](N)Cc1ccc(O)cc1)[C@@H](C)O)C(=O)N[C@@H](Cc1ccccc1)C(N)=O [Compound No. 205] (H-[dY]NTNSFGL[Arg(Me)]F-NH2) | 260 | 10 |
| CNC(=N)NCCC[C@H](NC(=O)[C@H](CC(C)C)NC(=O)CNC(=O)[C@H](Cc1ccccc1)NC(=O)[C@H](CO)NC(=O)[C@H](CC(N)=O)NC(=O)[C@@H](Cc1c[nH]c2ccccc12)NC(=O)[C@H](N)Cc1ccc(O)cc1)C(=O)N[C@@H](Cc1ccccc1)C(N)=O [Compound No. 224, D-Tyr-D-Trp-Asn-Ser-Phe-Gly-Leu-Arg(Me)-Phe-NH2] (H-[dY][dW]NSFGL[Arg(Me)]F-NH2) | 140 | 2 and 1 |
| CC(C)C[C@H](NC(=O)CNC(=O)[C@H](Cc1ccccc1)NC(=O)[C@H](CO)NC(=O)[C@H](CC(N)=O)NC(=O)[C@H](Cc1c[nH]c2ccccc12)NC(=O)[C@H](CC(N)=O)NC(=O)[C@@H](N)Cc1ccc(O)cc1)C(=O)N[C@@H](CCCNC(=N)N)C(=O)N[C@@H](Cc1ccc(O)cc1)C(N)=O [Compound No. 109] (H-YNWNSFGLRY-NH2) | 23 | 20 |
| CNC(=N)NCCC[C@H](NC(=O)[C@H](CC(C)C)NC(=O)NNC(=O)[C@H](Cc1ccccc1)NC(=O)[C@H](CO)NC(=O)[C@H](CC(N)=O)NC(=O)CCc1ccccc1)C(=O)N[C@@H](Cc1ccccc1)C(N)=O [Compound No. 269, 3-Phenylpropionyl-Asn-Ser-Phe-AzaGly-Leu-Arg(Me)-Phe-NH2] (Hydrocinnamoyl-NSF[azaGly]L[Arg(Me)]F-NH2) | 470 | 3 |
| CC[C@H](C)[C@H](NC(=O)[C@H](CC(N)=O)NC(=O)[C@H](N)Cc1ccc(O)cc1)C(=O)N[C@@H](CC(N)=O)C(=O)N[C@@H](CO)C(=O)N[C@@H](Cc1ccccc1)C(=O)NNC(=O)N[C@@H](CC(C)C)C(=O)N[C@@H](CCCNC(=N)NC)C(=O)N[C@@H](Cc1ccccc1)C(N)=O [Compound No. 233, D-Tyr-Asn-Ile-Asn-Ser-Phe-AzaGly-Leu-Arg(Me)-Phe-NH2] (H-[dY]NINSF[azaGly]L[Arg(Me)]F-NH2) | 23 | 1 |
| CNC(=N)NCCC[C@H](NC(=O)[C@H](CC(C)C)NC(=O)NNC(=O)[C@H](Cc1ccccc1)NC(=O)[C@H](CO)NC(=O)[C@H](CC(N)=O)NC(=O)Cc1c[nH]c2ccccc12)C(=O)N[C@@H](Cc1ccccc1)C(N)=O [Compound No. 266, Indol-3-acetyl-Asn-Ser-Phe-AzaGly-Leu-Arg(Me)-Phe-NH2] (X2-NSF[azaGly]L[Arg(Me)]F-NH2) | 230 | 2 |
| CNC(=N)NCCC[C@H](NC(=O)[C@H](CC(C)C)NC(=O)NNC(=O)[C@H](Cc1ccccc1)NC(=O)[C@H](CO)NC(=O)[C@H](CC(N)=O)NC(=O)c1c[nH]c2ccccc12)C(=O)N[C@@H](Cc1ccccc1)C(N)=O [Compound No. 265, Indole-3-carbonyl-Asn-Ser-Phe-AzaGly-Leu-Arg(Me)-Phe-NH2] (X6-NSF[azaGly]L[Arg(Me)]F-NH2) | 95 | 3 |
| CNC(=N)NCCC[C@H](NC(=O)[C@H](CC(C)C)NC(=O)NNC(=O)[C@H](Cc1ccccc1)NC(=O)[C@H](CO)NC(=O)[C@H](CC(N)=O)NC(=O)[C@H](Cc1ccc2ccccc2n1)NC(=O)[C@H](CC(N)=O)NC(=O)[C@H](N)Cc1ccc(O)cc1)C(=O)N[C@@H](Cc1ccccc1)C(N)=O [Compound No. 301, D-Tyr-Asn-Ala(2-Qui)-Asn-Ser-Phe-AzaGly-Leu-Arg(Me)-Phe-NH2] (H-[dY]N[X1]NSF[azaGly]L[Arg(Me)]F-NH2) | 15 | 1 |
| CNC(=N)NCCC[C@H](NC(=O)[C@H](CC(C)C)NC(=O)NNC(=O)[C@H](Cc1ccccc1)NC(=O)[C@H](CO)NC(=O)[C@H](CC(N)=O)NC(=O)C1CCCCC1)C(=O)N[C@@H](Cc1ccccc1)C(N)=O [Compound No. 278, Cyclohexanecarbonyl-Asn-Ser-Phe-AzaGly-Leu-Arg(Me)-Phe-NH2] (Cyclohexanecarbonyl-NSF[azaGly]L[Arg(Me)]F-NH2) | 110 | 2 |
